Where two headings read alike, the source gives them in different places.
What was measured:
Aphis gossypii = assay: whole plant or invertebrate; assay type: in vivo
Description: The test was performed in duplicate.
(§1) Method for Judging Synergistic Effects

Spodoptera litura = assay: whole plant or invertebrate; assay type: in vivo; conditions: for Theoretical value by Colby's equation: Spodoptera litura; for Mortality of single agent against Spodoptera litura: cabbage leaf disk spray, three days
Description: After an air drying process, third instar larvae were released thereto. […] The test was performed in duplicate.
as §1

Plutella xylostella = assay: whole plant or invertebrate; assay type: in vivo
Description: After an air drying process, second instar larvae were released thereto. […] The test was performed in duplicate.
as §1

Rhizoctonia solani = assay: Test Example 12 Test of control of rice sheath blight (Rhizoctonia solani); assay type: in vivo; conditions: single agent 5 ppm; foliar spray; six days after inoculation
rice blast = assay type: in vivo; conditions: single agent 0.5 ppm; foliar application; fourteen days after inoculation
Laodelphax striatellus = assay: Test Example 14 Test with Laodelphax striatellus by soil irrigation treatment (mixture with paddy herbicide); assay type: in vivo; conditions: single agent 0.05 mg/seedling, five days after release
Description: After standing for three days, second instar larvae were released thereto. […] The test was performed in duplicate.

Callosobruchus chinensis = assay type: in vivo; conditions: single agent 0.2 ng/head; topical; one day
Description: A compound of Formula (I) and the insecticide indicated below, prepared in predetermined concentrations using acetone, were separately topically applied to the back of the same adult Callosobruchus chinensis. […] The test was performed in duplicate. Insect mortality (%)={number of dead insects/(number of survived insects+number of dead insects)}×100
(A: 100−(insect mortality for treatment with only Compound P212)
B: 100−(insect mortality for treatment with only the insecticide fipronil or imidacloprid))
as §1

Laodelphax striatella = assay: whole plant or invertebrate; conditions: for mortality at 0.005 mg/seedling: read-out: Mortality of single agent against Laodelphax striatella, single agent 0.005 mg/Seedling; for Theoretical value by Colby's equation: Laodelphax striatella soil irrigation, single agent 0.5 mg/Seedling (other component 0); for Mortality of single agent against Laodelphax striatella: single agent 0.5 mg/Seedling
Description: (§2) After the rice seedling was left to stand for 3 days, second instar larvae were released thereto. Thereafter, the larvae were left to stand in a thermostatic chamber (16 hours of light period-8 hours of dark period) at 25° C. […] The test was performed in duplicate. Mortality of larvae (%)={number of dead larvae/(number of survived larvae+number of dead larvae)}×100
B: 100−(mortality of larvae or adults when treated only with each of imidacloprid, fipronil, chlorantraniliprole, spinosad, clothianidin, dinotefuran, sulfoxaflor, pymetrozine, thiamethoxam, flupyradifurone and cycloxaprid))
as §1
When the mortality against Laodelphax striatella in the case of a mixture with another agent exceeded the theoretical value by the Colby's equation, a synergistic effect was judged to be present.

Naranga aenescens = assay type: in vivo; conditions: for Mortality of single agent against Naranga aenescens: soil irrigation, five days after release
Description: After standing for 3 days, first instar larvae were released thereto. […] The test was performed in duplicate.
as §1

Chilo suppressalis = assay type: in vivo; conditions: for Mortality of single agent against Chilo suppressalis: soil irrigation, six days after release
Description: After standing for 3 days, second instar larvae were released thereto. […] The test was performed in duplicate.
as §1

[1] = tested on: Nilaparvata lugens resistant population II; assay: Reference Test Example 19 Pest control test of Nilaparvata lugens, resistant population II (soil drench); assay type: in vivo; conditions: for Insecticidal effects against Nilaparvata lugens (death rate %), Resistant population II: soil drench, six days
Description: (§3) Three days after the treatment, ten second instar larvae of Nilaparvata lugens, which had been collected outdoors and proliferated indoors, were each released to the rice seedling. […] Test in duplicate.
(§4) Furthermore, for comparison, the test against a species of Nilaparvata lugens which is highly susceptible to imidacloprid was performed by the same method as described above, and the results thereof are shown in Table 45. […] Meanwhile, the death rates of imidacloprid at 0.05 mg/seedling were (susceptible species) 100%, (resistant population I) 38% and (resistant population II) 69%, and the insecticidal effect thereof was also low even at a high dose. From the above results, it became obvious that Compound P212 and Compound 1-20 have high insecticidal effects even against Nilaparvata lugens resistance against imidacloprid.
(§5) Further, for the origin of test pests, bugs collected outdoors from the Kumamoto prefecture (I) in 2007 and from the Fukuoka prefecture (II) in 2005 as resistant population of Nilaparvata lugens, and bugs collected from the Kagoshima prefecture and then successively reared indoors for a long time as the imidacloprid susceptible population of Nilaparvata lugens were used.

[2] = tested on: Frankliniella occidentalis; assay: whole plant or invertebrate
Description: as §2, with “an air drying process, first” for “the rice seedling was left to stand for 3 days, second”
(A: 100−(mortality of larvae or adults when treated only with Compound P212)
B: 100−(mortality of larvae or adults when treated with only the insecticide imidacloprid, dinotefuran, or acetamiprid))
as §1
When the mortality against Frankliniella occidentalis in the case of a mixture with another agent exceeded the theoretical value given by Colby's equation, a synergistic effect was judged to be present.

[3] = tested on: Haemaphysalis longicornis; assay: whole plant or invertebrate; assay type: in vivo; conditions: Haemaphysalis longicornis, topical, 120 h, read-out: Mortality of single agent against Haemaphysalis longicornis, single agent 1.9 μg; capsule on mouse; five days; mortality and agonal rate
Description: A capsule with a diameter of 2 cm and a height of 2 cm was attached to the dorsal surface of a mouse. A compound of Formula (I), ivermectin, moxidectin, permethrin, amitraz, fipronil, spinetram and the mixture of the compound of Formula (I) and each insecticide were dissolved in ethanol at the concentrations given in […], and each of these was dripped onto the surface of a mouse body within a capsule. After thorough drying, eight Haemaphysalis longicornis nymphs were released and the top of the capsule was sealed with a lid. The mouse was kept in a cage at 25° C. using a 12-hour light period and a 12-hour dark period. Five days after the release, the capsule was removed and the number of surviving and dead nymphs and the number of engorged individuals were counted and the insect mortality and agonal rate was calculated by the following equation. Insect mortality and agonal rate (%)={number of dead and agonal insects/(number of survived insects+number of dead and agonal insects)}×100

[4] = tested on: Nilaparvata lugens resistant population I; assay: Reference Test Example 19 Pest control test of Nilaparvata lugens, resistant population I (soil drench); assay type: in vivo
Description: as §3, §4, §5

[5] = tested on: Nilaparvata lugens susceptible species (highly susceptible to imidacloprid); assay: Reference Test Example 19 Pest control test of Nilaparvata lugens, imidacloprid susceptible species (soil drench); assay type: in vivo; conditions: for Insecticidal effects against Nilaparvata lugens (death rate %), Susceptible population: soil drench, six days
Description: as §3, §4, §5

[6] = Laodelphax striatellus, soil, 72 h, soil irrigation

`C[C@]1(COC(=O)C2CC2)[C@@H]2C[C@H](O)[C@@]3(C)Oc4cc(-c5cccnc5)oc(=O)c4[C@H](O)[C@@H]3[C@@]2(C)CC[C@@H]1OC(=O)C1CC1` [Afidopyropen] was tested. Which “Theoretical value by Colby's equation” value (Aphis gossypii; Aphis gossypii, single agent 0.002 ppm (other component 0)) did it give?
The value was 25%.

What about the “Mortality of single agent against Aphis gossypii” value (Aphis gossypii; single agent 0.002 ppm, cucumber leaf disk spray, three days) of the same molecule?
The value was 25%.

What about the “Theoretical value by Colby's equation” value (Spodoptera litura; single agent 5 ppm (other component 0)) of the same molecule?
Its value is 0%.

What about the “Theoretical value by Colby's equation” value (Spodoptera litura; single agent 10 ppm (other component 0)) of the same molecule?
The value was 0%.

And the “Mortality of single agent against Spodoptera litura” value (Spodoptera litura; single agent 5 ppm)?
The value was 0%.

What about the “Mortality of single agent against Spodoptera litura” value (Spodoptera litura; single agent 10 ppm) of the same molecule?
Its value is 0%.

What about the “Theoretical value by Colby's equation” value (Plutella xylostella; Plutella xylostella, single agent 5 ppm (other component 0)) of the same molecule?
The value was 0%.

And the “Theoretical value by Colby's equation” value (Plutella xylostella; Plutella xylostella, single agent 10 ppm (other component 0))?
The value was 20%.

And the “Mortality of single agent against Plutella xylostella” value (Plutella xylostella; single agent 5 ppm, cabbage leaf disk spray, three days)?
The value was 0%.

What about the “Mortality of single agent against Plutella xylostella” value (Plutella xylostella; single agent 10 ppm, cabbage leaf disk spray, three days) of the same molecule?
Its value is 20%.

Which “Preventive value (Sheath blight test, lesion height)” value (Rhizoctonia solani) does the source give for `CO/C=C(/C(=O)OC)c1ccccc1Oc1cc(Oc2ccccc2C#N)ncn1` [Azoxystrobin] here?
The value was 95.

And the “Preventive value (Rice blast test, number of lesions)” value (rice blast)?
The value was 37.

For `CCN(CC)C(=O)n1cnc(S(=O)(=O)c2c(C)cc(C)cc2C)n1` [Cafenstrole], which “Mortality of larvae (Laodelphax striatellus)” value (“Mortality of larvae” for short) (Laodelphax striatellus) is on record?
The value was 0%.

How did the “Mortality of larvae” value (Laodelphax striatellus) turn out when `CCCCOC(=O)[C@@H](C)Oc1ccc(Oc2ccc(C#N)cc2F)cc1` [Cyhalofop-butyl] was run?
Its value is 0%.

For `Cc1ccc(NC(=O)NC(C)(C)c2ccccc2)cc1` [Daimuron], which “Mortality of larvae” value (Laodelphax striatellus) is on record?
Its value is 0%.

How did the “Mortality of single agent against Callosobruchus chinensis” value (Callosobruchus chinensis) turn out when `N#Cc1nn(-c2c(Cl)cc(C(F)(F)F)cc2Cl)c(N)c1[S+]([O-])C(F)(F)F` (stereo not drawn) [Fipronil] was run?
The value was 0%.

And the mortality at 0.001 mg/seedling (Laodelphax striatella; Laodelphax striatellus, soil, 72 h, read-out: Mortality of single agent against Laodelphax striatella, single agent 0.001 mg/Seedling, soil irrigation)?
Its mortality at 0.001 mg/seedling is 0%.

What about the mortality at 0.005 mg/seedling (Laodelphax striatella; [6]) of the same molecule?
Its mortality at 0.005 mg/seedling is 26%.

What about the “Mortality of single agent against Naranga aenescens” value (Naranga aenescens; single agent 0.01 mg/seedling) of the same molecule?
Its value is 20%.

What about the “Theoretical value by Colby's equation” value (Plutella xylostella; 0.04 ppm) of the same molecule?
Its value is 50%.

And the mortality at 0.04 ppm (Plutella xylostella; Plutella xylostella, foliar, 72 h, read-out: Mortality of single agent against Plutella xylostella, single agent 0.04 ppm, cabbage leaf disk spray, three days)?
The mortality at 0.04 ppm was 50%.

And the “Mortality of single agent against Chilo suppressalis” value (Chilo suppressalis; single agent 0.0005 mg/seedling)?
Its value is 40%.

For `CNC(=O)/C(=N/OC)c1ccccc1CO/N=C(C)/C(=N/OC)C(/C)=N/OC` [Orysastrobin], which “Theoretical value by Colby's equation” value (Laodelphax striatella) is on record?
Its value is 4%.

And the “Mortality of single agent against Laodelphax striatella” value (Laodelphax striatella; soil irrigation)?
Its value is 4%.

What about the “Preventive value (Sheath blight test, lesion height)” value (Rhizoctonia solani) of the same molecule?
Its value is 72.

And the “Preventive value (Rice blast test, number of lesions)” value (rice blast)?
Its value is 20.

Which “Preventive value (Sheath blight test, lesion height)” value (Rhizoctonia solani) does the source give for `OCC1=C[C@H](N[C@H]2C[C@H](CO)[C@@H](O[C@@H]3O[C@H](CO)[C@@H](O)[C@H](O)[C@H]3O)[C@H](O)[C@H]2O)[C@H](O)[C@@H](O)[C@@H]1O` [Validamycin] here?
Its value is 32.

With `O=[N+]([O-])NC1=NCCN1Cc1ccc(Cl)nc1` [imidacloprid, reference compound] as the molecule, how does the “Mortality of single agent against Callosobruchus chinensis” value (Callosobruchus chinensis) read?
Its value is 40%.

What about the mortality at 0.005 mg/seedling (Laodelphax striatella; [6]) of the same molecule?
The mortality at 0.005 mg/seedling was 0%.

What about the death rates ([1]; resistant population II, 0.05 mg/seedling, six days after the release) of the same molecule?
The death rates was 69%.

And the “Insecticidal effects against Nilaparvata lugens (death rate %), Resistant population II” value ([1]; throughput 0.01 mg/seedling)?
Its value is 39%.

And the “Insecticidal effects against Nilaparvata lugens (death rate %), Resistant population II” value ([1]; throughput 0.05 mg/seedling)?
The value was 69%.

And the “Theoretical value by Colby's equation” value ([2]; 20 ppm)?
The value was 69%.

What about the mortality at 20 ppm ([2]; Frankliniella occidentalis, foliar, 72 h, read-out: Mortality of single agent against Frankliniella occidentalis) of the same molecule?
Its mortality at 20 ppm is 69%.

And the mortality at 0.0019 mg [3]?
The mortality at 0.0019 mg was 7.7%.

And the death rates ([4]; resistant population I, 0.05 mg/seedling, six days after the release)?
Its death rates is 38%.

What about the “Insecticidal effects against Nilaparvata lugens (death rate %), Resistant population I” value ([4]; throughput 0.05 mg/seedling, soil drench, six days) of the same molecule?
Its value is 38%.

What about the death rates ([5]; susceptible species, 0.05 mg/seedling, six days after the release) of the same molecule?
Its death rates is 100%.

And the “Insecticidal effects against Nilaparvata lugens (death rate %), Susceptible population” value ([5]; throughput 0.01 mg/seedling)?
Its value is 100%.

What about the “Insecticidal effects against Nilaparvata lugens (death rate %), Susceptible population” value ([5]; throughput 0.05 mg/seedling) of the same molecule?
Its value is 100%.

For Spinosad, which “Theoretical value by Colby's equation” value (Laodelphax striatella) is on record?
Its value is 0%.

What about the “Mortality of single agent against Laodelphax striatella” value (Laodelphax striatella; soil irrigation) of the same molecule?
The value was 0%.

What about the “Theoretical value by Colby's equation” value (Naranga aenescens; Naranga aenescens, single agent 0.005 mg/seedling (other component 0)) of the same molecule?
Its value is 40%.

What about the “Mortality of single agent against Naranga aenescens” value (Naranga aenescens; single agent 0.005 mg/seedling) of the same molecule?
Its value is 40%.

And the “Theoretical value by Colby's equation” value (Plutella xylostella; Plutella xylostella, single agent 0.01 ppm (other component 0))?
The value was 11%.

What about the “Mortality of single agent against Plutella xylostella” value (Plutella xylostella; single agent 0.01 ppm, cabbage leaf disk spray, three days) of the same molecule?
The value was 11%.

And the “Theoretical value by Colby's equation” value (Chilo suppressalis; Chilo suppressalis, single agent 0.002 mg/seedling (other component 0))?
Its value is 80%.

What about the “Mortality of single agent against Chilo suppressalis” value (Chilo suppressalis; single agent 0.002 mg/seedling) of the same molecule?
Its value is 80%.

Source: US11771086B2, “Pest control composition including novel iminopyridine derivative” (priority 2012, dated 2023)
